Data published in patent US9101137B2 (priority 2011, dated 2015).
Where two headings read alike, the source gives them in different places.

Assays:
Format in all cases: in vivo, Magnaporthe grisea
[1] = system: rice blast disease; conditions: application concentration 20 ppm; rice (Nanatsuboshi), spray; lesion area after 5 days
[2] = system: rice blast disease; conditions: application concentration 10 ppm; rice (Nanatsuboshi), spray; lesion area after 6 days; average of duplicate
[3] = system: rice blast disease; conditions: application concentration 50 ppm; rice (Nanatsuboshi), spray; lesion area after 6 days

## COC(=O)NCc1cc(/C(C)=N/OCc2cccc(C)n2)ccc1Cl [Pyribencarb, pyribencarb]
[1]
  Control value: 40.0
[2]
  Control value: 18.8
[3]
  Control value: 86.0
